{"source": "patent US20090012103A1", "about": "“SUBSTITUTED HETEROCYCLIC COMPOUNDS” (priority 2007, published 2009)", "key": {"[1]": {"target": "T1, wild-type human cardiac sodium channel, hNav1.5 (Homo sapiens, UniProt Q14524)", "T1 sequence (Q14524 whole entry)": "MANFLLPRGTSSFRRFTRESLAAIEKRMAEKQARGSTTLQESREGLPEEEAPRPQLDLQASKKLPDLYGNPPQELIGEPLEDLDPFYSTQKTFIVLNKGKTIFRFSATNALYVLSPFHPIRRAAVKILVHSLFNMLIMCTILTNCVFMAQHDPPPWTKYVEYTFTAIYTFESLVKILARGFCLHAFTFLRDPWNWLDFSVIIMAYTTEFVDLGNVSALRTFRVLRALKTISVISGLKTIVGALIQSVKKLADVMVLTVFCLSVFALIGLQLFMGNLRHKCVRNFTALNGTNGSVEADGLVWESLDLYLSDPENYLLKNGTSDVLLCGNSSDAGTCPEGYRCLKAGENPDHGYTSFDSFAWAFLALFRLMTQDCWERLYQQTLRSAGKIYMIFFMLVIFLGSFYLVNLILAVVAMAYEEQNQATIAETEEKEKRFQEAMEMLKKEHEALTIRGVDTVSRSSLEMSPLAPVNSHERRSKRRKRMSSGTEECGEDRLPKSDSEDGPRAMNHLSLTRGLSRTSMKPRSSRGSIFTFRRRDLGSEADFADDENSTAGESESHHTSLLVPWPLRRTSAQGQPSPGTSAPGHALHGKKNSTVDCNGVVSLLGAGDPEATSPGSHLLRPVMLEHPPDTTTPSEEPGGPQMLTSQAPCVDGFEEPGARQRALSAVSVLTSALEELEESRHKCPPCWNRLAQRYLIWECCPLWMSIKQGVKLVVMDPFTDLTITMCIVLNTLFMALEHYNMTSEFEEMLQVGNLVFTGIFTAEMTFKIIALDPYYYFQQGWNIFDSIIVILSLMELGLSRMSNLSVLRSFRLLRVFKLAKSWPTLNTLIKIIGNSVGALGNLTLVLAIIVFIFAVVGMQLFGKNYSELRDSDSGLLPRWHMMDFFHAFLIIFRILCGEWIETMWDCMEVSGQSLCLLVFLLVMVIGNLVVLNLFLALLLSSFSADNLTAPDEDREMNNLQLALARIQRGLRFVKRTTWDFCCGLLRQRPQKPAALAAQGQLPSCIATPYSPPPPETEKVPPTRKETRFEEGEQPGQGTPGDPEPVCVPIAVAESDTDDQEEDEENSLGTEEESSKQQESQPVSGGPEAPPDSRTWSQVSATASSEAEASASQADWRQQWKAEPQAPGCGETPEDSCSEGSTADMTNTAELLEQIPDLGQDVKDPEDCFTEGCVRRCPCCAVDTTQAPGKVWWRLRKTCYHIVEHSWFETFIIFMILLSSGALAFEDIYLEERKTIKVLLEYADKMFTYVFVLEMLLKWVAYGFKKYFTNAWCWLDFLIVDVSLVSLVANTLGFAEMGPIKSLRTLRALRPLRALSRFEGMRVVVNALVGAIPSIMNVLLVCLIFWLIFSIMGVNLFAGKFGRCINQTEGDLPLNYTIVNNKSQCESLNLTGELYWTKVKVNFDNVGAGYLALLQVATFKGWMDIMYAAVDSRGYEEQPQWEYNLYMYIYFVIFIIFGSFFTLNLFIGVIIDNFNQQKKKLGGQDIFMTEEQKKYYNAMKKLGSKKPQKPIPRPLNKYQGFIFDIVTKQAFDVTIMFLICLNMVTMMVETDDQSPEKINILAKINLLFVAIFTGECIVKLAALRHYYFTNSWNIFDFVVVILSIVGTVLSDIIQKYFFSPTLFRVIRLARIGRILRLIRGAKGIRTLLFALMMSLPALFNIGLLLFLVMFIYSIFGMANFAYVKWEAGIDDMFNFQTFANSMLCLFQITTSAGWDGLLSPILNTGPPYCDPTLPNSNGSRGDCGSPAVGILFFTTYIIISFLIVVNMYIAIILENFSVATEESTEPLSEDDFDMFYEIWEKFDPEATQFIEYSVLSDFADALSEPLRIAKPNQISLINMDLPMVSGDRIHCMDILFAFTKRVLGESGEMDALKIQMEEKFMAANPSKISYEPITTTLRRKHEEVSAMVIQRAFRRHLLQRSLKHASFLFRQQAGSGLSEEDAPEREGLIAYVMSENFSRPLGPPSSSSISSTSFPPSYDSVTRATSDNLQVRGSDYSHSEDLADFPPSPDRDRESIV", "experiment": "Peak INa screening assay (tonic block TB and use-dependent block UDB of peak sodium current)", "type": "cell-based", "details": "compound at 10 μM"}, "hERG potassium channel": {"target": "hERG potassium channel (Homo sapiens, UniProt Q12809)", "sequence (Q12809 whole entry)": "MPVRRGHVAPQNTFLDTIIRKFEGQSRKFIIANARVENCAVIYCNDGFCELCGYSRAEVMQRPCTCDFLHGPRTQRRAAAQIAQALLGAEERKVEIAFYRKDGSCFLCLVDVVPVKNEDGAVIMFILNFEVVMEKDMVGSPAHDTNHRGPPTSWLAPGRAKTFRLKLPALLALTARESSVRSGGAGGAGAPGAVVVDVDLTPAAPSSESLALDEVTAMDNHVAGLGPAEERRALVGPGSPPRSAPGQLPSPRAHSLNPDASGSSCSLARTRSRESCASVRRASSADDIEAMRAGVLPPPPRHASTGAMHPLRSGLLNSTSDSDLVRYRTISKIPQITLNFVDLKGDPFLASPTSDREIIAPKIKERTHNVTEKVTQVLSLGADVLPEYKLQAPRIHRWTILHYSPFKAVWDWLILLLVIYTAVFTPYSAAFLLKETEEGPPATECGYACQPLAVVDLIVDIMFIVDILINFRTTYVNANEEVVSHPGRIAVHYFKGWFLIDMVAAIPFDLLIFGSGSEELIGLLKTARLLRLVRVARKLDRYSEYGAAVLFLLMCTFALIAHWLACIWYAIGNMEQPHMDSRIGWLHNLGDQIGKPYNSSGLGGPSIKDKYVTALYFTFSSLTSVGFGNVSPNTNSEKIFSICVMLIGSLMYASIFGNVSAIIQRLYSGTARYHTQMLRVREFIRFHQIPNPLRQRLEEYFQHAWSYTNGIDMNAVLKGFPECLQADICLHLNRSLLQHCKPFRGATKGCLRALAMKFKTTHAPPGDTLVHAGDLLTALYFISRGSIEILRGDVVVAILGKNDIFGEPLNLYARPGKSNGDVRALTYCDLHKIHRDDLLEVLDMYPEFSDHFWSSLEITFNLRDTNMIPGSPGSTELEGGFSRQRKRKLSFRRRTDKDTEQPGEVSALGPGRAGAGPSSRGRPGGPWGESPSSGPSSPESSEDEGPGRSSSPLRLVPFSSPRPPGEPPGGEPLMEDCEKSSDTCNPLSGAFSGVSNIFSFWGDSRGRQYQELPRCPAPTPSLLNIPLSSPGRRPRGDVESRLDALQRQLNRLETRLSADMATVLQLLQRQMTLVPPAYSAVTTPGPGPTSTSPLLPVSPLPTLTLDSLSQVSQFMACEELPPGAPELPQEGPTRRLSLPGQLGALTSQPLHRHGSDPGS", "experiment": "hERG screening assay (PatchXpress patch clamp, CHO cell line)"}, "[2]": {"target": "T1, wild-type human cardiac sodium channel, hNav1.5", "experiment": "Late INa screening assay (late sodium current, PatchXpress whole cell patch clamp)", "type": "cell-based", "details": "compound at 10 μM; read-out: Late INa % blk"}, "[3]": {"details": "tonic block, read-out: Tonic Peak INa % blk"}, "[4]": {"details": "use-dependent block, read-out: UDB Peak INa % blk"}}}
{"molecule": "CC1=C(C(=O)OC(C)C)C(c2ccc(Br)s2)C(C(=O)OC(C)C)=C(C)N1", "note": "[PT-124, diisopropyl 4-(5-bromothiophen-2-yl)-2,6-dimethyl-1,4-dihydropyridine-3,5-dicarboxylate]", "values": [{"measurement": "inhibition at 10 µM", "setting": "[1]; [3]", "result": 58.7, "unit": "%"}, {"measurement": "hERG Patch Clamp hERG % blk", "setting": "hERG potassium channel; 1 μM", "result": 11.5, "unit": "%"}, {"measurement": "hERG Patch Clamp hERG % blk", "setting": "hERG potassium channel; 10 μM", "result": 66.0, "unit": "%"}, {"measurement": "inhibition at 10 µM", "setting": "[2]", "result": 86.2, "unit": "%"}]}
{"molecule": "COc1ccc(C2C(C(=O)OCc3ccccc3)=C(C)Nc3nnnn32)c(C#N)c1", "note": "(centres unmarked) [PT-389, benzyl 7-(2-cyano-4-methoxyphenyl)-5-methyl-4,7-dihydrotetrazolo[1,5-a]pyrimidine-6-carboxylate]", "values": [{"measurement": "inhibition at 10 µM", "setting": "[1]; [3]", "result": -1.6, "unit": "%"}, {"measurement": "hERG Patch Clamp hERG % blk", "setting": "hERG potassium channel; 1 μM", "result": 23.5, "unit": "%"}, {"measurement": "hERG Patch Clamp hERG % blk", "setting": "hERG potassium channel; 10 μM", "result": 69.0, "unit": "%"}, {"measurement": "inhibition at 10 µM", "setting": "[2]", "result": 49.7, "unit": "%"}]}
{"molecule": "CC1=C(C(=O)OCc2ccccc2)C(c2cccc3ccccc23)n2nnnc2N1", "note": "(centres unmarked) [PT-027, benzyl 5-methyl-7-(naphthalen-1-yl)-4,7-dihydrotetrazolo[1,5-a]pyrimidine-6-carboxylate]", "values": [{"measurement": "inhibition at 10 µM", "setting": "[1]; [3]", "result": 29.7, "unit": "%"}, {"measurement": "inhibition at 10 µM", "setting": "[1]; [4]", "result": 6.8, "unit": "%"}, {"measurement": "hERG Patch Clamp hERG % blk", "setting": "hERG potassium channel; 1 μM", "result": 14.0, "unit": "%"}, {"measurement": "hERG Patch Clamp hERG % blk", "setting": "hERG potassium channel; 10 μM", "result": 64.5, "unit": "%"}, {"measurement": "inhibition at 10 µM", "setting": "[2]", "result": 74.9, "unit": "%"}]}
{"molecule": "N#CC1=C(N)OC2=C(C(=O)CC(c3ccccc3)C2)C1c1cccs1", "note": "(centres unmarked) [PT-101, 2-amino-5-oxo-7-phenyl-4-(thiophen-2-yl)-5,6,7,8-tetrahydro-4H-chromene-3-carbonitrile]", "values": [{"measurement": "inhibition at 10 µM", "setting": "[1]; [3]", "result": 2.9, "unit": "%"}, {"measurement": "hERG Patch Clamp hERG % blk", "setting": "hERG potassium channel; 1 μM", "result": 19.0, "unit": "%"}, {"measurement": "hERG Patch Clamp hERG % blk", "setting": "hERG potassium channel; 10 μM", "result": 67.5, "unit": "%"}, {"measurement": "inhibition at 10 µM", "setting": "[2]", "result": 49.3, "unit": "%"}]}
{"molecule": "CC1=C(C(=O)OCc2ccccc2)[C@@H](c2ccccc2-c2ccc(C)o2)n2nnnc2N1", "note": "[PT-235, (R)-benzyl 5-methyl-7-(2-(5-methylfuran-2-yl)phenyl)-4,7-dihydrotetrazolo[1,5-a]pyrimidine-6-carboxylate]", "values": [{"measurement": "inhibition at 10 µM", "setting": "[1]; [3]", "result": 28.1, "unit": "%"}, {"measurement": "hERG Patch Clamp hERG % blk", "setting": "hERG potassium channel; 1 μM", "result": 10.0, "unit": "%"}, {"measurement": "hERG Patch Clamp hERG % blk", "setting": "hERG potassium channel; 10 μM", "result": 41.5, "unit": "%"}, {"measurement": "inhibition at 10 µM", "setting": "[2]", "result": 71.4, "unit": "%"}]}
{"molecule": "CCOC(=O)C1=C(C)NC(C)=C(C(=O)OCC)C1c1cc2ccccc2s1", "note": "[PT-114, diethyl 4-(benzo[b]thiophen-2-yl)-2,6-dimethyl-1,4-dihydropyridine-3,5-dicarboxylate]", "values": [{"measurement": "inhibition at 10 µM", "setting": "[1]; [3]", "result": 13.1, "unit": "%"}, {"measurement": "hERG Patch Clamp hERG % blk", "setting": "hERG potassium channel; 1 μM", "result": 20.9, "unit": "%"}, {"measurement": "hERG Patch Clamp hERG % blk", "setting": "hERG potassium channel; 10 μM", "result": 51.5, "unit": "%"}, {"measurement": "inhibition at 10 µM", "setting": "[2]", "result": 85, "unit": "%"}]}
{"molecule": "CC1=C(C(=O)OCc2ccccc2)C(c2ccccc2-c2cccc(NS(C)(=O)=O)c2)n2nnnc2N1", "note": "(centres unmarked) [PT-348, benzyl 5-methyl-7-(3′-(methylsulfonamido)biphenyl-2-yl)-4,7-dihydrotetrazolo[1,5-a]pyrimidine-6-carboxylate]", "values": [{"measurement": "inhibition at 10 µM", "setting": "[1]; [3]", "result": 17.2, "unit": "%"}, {"measurement": "hERG Patch Clamp hERG % blk", "setting": "hERG potassium channel; 1 μM", "result": 10.0, "unit": "%"}, {"measurement": "hERG Patch Clamp hERG % blk", "setting": "hERG potassium channel; 10 μM", "result": 38.5, "unit": "%"}, {"measurement": "inhibition at 10 µM", "setting": "[2]", "result": 71.6, "unit": "%"}]}
{"molecule": "COc1cc(Cl)ccc1COC(=O)C1=C(C)Nc2nnnn2C1c1c(C)cccc1C", "note": "(centres unmarked) [PT-307, 4-chloro-2-methoxybenzyl 7-(2,6-dimethylphenyl)-5-methyl-4,7-dihydrotetrazolo[1,5-a]pyrimidine-6-carboxylate]", "values": [{"measurement": "inhibition at 10 µM", "setting": "[1]; [3]", "result": 14, "unit": "%"}, {"measurement": "inhibition at 10 µM", "setting": "[1]; [4]", "result": 16.6, "unit": "%"}, {"measurement": "hERG Patch Clamp hERG % blk", "setting": "hERG potassium channel; 1 μM", "result": 10.0, "unit": "%"}, {"measurement": "hERG Patch Clamp hERG % blk", "setting": "hERG potassium channel; 10 μM", "result": 62.5, "unit": "%"}, {"measurement": "inhibition at 10 µM", "setting": "[2]", "result": 84.9, "unit": "%"}]}
{"molecule": "CC1=C(C(=O)OCc2ccccc2)C(c2ccccc2N2CCN(C)CC2)n2nnnc2N1", "note": "(centres unmarked) [PT-340, benzyl 5-methyl-7-(2-(4-methylpiperazin-1-yl)phenyl)-4,7-dihydrotetrazolo[1,5-a]pyrimidine-6-carboxylate]", "values": [{"measurement": "inhibition at 10 µM", "setting": "[1]; [3]", "result": 89.1, "unit": "%"}, {"measurement": "hERG Patch Clamp hERG % blk", "setting": "hERG potassium channel; 1 μM", "result": 57.0, "unit": "%"}, {"measurement": "hERG Patch Clamp hERG % blk", "setting": "hERG potassium channel; 10 μM", "result": 93.5, "unit": "%"}, {"measurement": "inhibition at 10 µM", "setting": "[2]", "result": 71.9, "unit": "%"}]}
